In patent US6623735B1, “Vaccine containing a thiol protease” (priority 1992, dated 2003):
Starred links: 1 amine or outer side, 2 acyl side, 3 side chain; linkers in the order of their positions; H or OH if unused. Residues, ends and D or L forms follow the SMILES beside them. *: point of attachment. AMC = Cc1cc(=O)oc2cc(N*)ccc12; Suc = O=C(CCC(=O)[*:2])[*:1]; Tos = Cc1ccc(S(=O)(=O)*)cc1; Cbz = O=C(OCc1ccccc1)*; Boc = CC(C)(C)OC(=O)*; Bz = O=C(c1ccccc1)*

Assays:
[1] = system: E/S products from 5 week-old F. hepatica; assay: Specific activity against fluorogenic substrates by E/S products, 5 week-old flukes; assay type: biochemical, Fasciola hepatica; conditions: E/S products of 5 week-old flukes; means of duplicate results
Method: (§1) Mature flukes were removed from the bile ducts of bovine livers obtained at an abbattoir. Immature parasites were obtained from the liver of male Wistar rats three and five weeks after infection with 20 metacercariae.
(§2) Newly excysted juvenile (NEJ), 3 week-old, 5 week-old and mature F. hepatica were maintained in vitro over a period of 3 days. The culture medium, removed daily, was then assayed for Cathepsin L-like activity using the fluorogenic substrate Z-phe-arg-AMC. Cathepsin L-like activity was present in the E/S products from all stages examined. Whilst the Cathepsin L-like activity increased on a daily basis in the NEJ E/S products, indicating an increase in its secretion with time, the activity of this proteinase in the EIS of all other stages decreased over the same time period. The proteinase activity in the E/S of each liver fluke stage was compared using three arginine-containing fluorogenic peptide substrates. These substrates were chosen on the basis of their affinity for lysosomal cathepsin enzymes; cathepsin L (Z-phe-arg-AMC), cathepsin B (Z-arg-arg-AMC) and cathepsin H (Z-arg-AMC). Significant activity was only detected using the Z-phe-arg-AMC substrate and similar results were obtained for all liver fluke stages examined (Table 2 below).

[2] = system: E/S products from mature F. hepatica; assay: Specific activity against fluorogenic substrates by E/S products, adult flukes; assay type: biochemical, Fasciola hepatica; conditions: E/S products of adult flukes; means of duplicate results
Method: as §1, §2

[3] = system: F. hepatica cathepsin L1; assay: Enzyme kinetic studies, cathepsin L1; assay type: biochemical, Fasciola hepatica; conditions: 0.1M glycine pH 7.0, 37° C.
Method: (§3) The kinetic constants of F. hepatica cathepsins L1 and L2 enzymes were determined for 11 different substrates: Z-Phe-Arg-AMC, Bz-Phe-Val-Arg-AMC, Suc-Leu-Leu-Val-Tyr-AMC, H-Leu-Val-Tyr-AMC, Tos-Gly-Pro-Lys-AMC, Tos-Gly-Pro-Arg-AMC, Boc-Val-Pro-Arg-AMC, Z-Arg-Arg-AMC, Z-Arg-AMC, Suc-Ala-Phe-Lys-AMC and Boc-Val-Leu-Lys-AMC. One mg of fluorogenic substrate was dissolved in 100 μl of dimethyl formamide. This stock solution was diluted in 0.1M glycine pH 7.0 to achieve the desired concentration of substrate. Each substrate concentration was in triplicate and the final assay volume was 1.0 ml. Included in the 1 ml aliquot was 20 μl of enzyme and 50 μl of 10 mM dithiothreitol. The samples were incubated at 37° C. for 30 min before stopping the reaction with the addition of 200 μl of 1.7 M acetic acid. The samples were assayed for released 7-amino-methyl-coumarin as above. The kinetic constants Vmax and Km were obtained by non-linear regression according to the method of Barrett et al (Biochem J. 201, p.189-198) except that 20 μl of cathepsin L2 was incubated with 20 μl of 1.0 μM-0.1 μM E-64 in a final volume of 80 μl 0.1M glycine pH 7.0 for 30 mins at 37° C. Twenty μl of 1/10 cathepsin L1 was incubated with 20 μl of 5 μM-0.5 μM E-64 in a final volume of 80 μl 0.1M glycine pH 7.0 for 30 min. at 37° C. All of the incubated sample was assayed for the fluorogenic substrate Z-Phe-Arg-AMC as above.

[4] = system: F. hepatica cathepsin L2; assay: Enzyme kinetic studies, cathepsin L2; assay type: biochemical, Fasciola hepatica; conditions: 0.1M glycine pH 7.0, 37° C.
Method: as §3

[5] = system: E/S products from newly excysted juvenile (NEJ) F. hepatica; assay: Specific activity against fluorogenic substrates by E/S products, NEJ; assay type: biochemical, Fasciola hepatica; conditions: E/S products of NEJ; means of duplicate results
Method: F. hepatica metacercariae (Pfizer strain) encysted on cellophane were removed with a Pasteur pipette into 2% sodium hypochlorite, vortexed and incubated for 30 minutes at 37° C. This procedure removes the outer cyst of the metacercariae. The metacercariae, now only with the inner transparent cyst, were placed into microtitre wells with an automatic pipette using a stereomicroscope and washed in distilled water. They were then incubated in a medium prepared by mixing equal volumes of 0.05M HCl with a solution containing 1% sodium bicarbonate, 0.8% NaCl and 0.2% sodium taurocholate. After 3 hours at 37° C. 70-80% of the flukes were excysted and actively moving. The excysted juveniles were separated from the inner cysts using a 20 μl automatic pipette under a stereomicroscope.
as §2

[6] = system: E/S products from 3 week-old F. hepatica; assay: Specific activity against fluorogenic substrates by E/S products, 3 week-old flukes; assay type: biochemical, Fasciola hepatica; conditions: E/S products of 3 week-old flukes; means of duplicate results
Method: as §1, §2

[7] = system: antibody-mediated attachment of eosinophils to NEJ; assay: Eosinophil adherence to NEJ in vitro assay; assay type: cell-based, rat
Method: Twenty newly excysted juvenile F. hepatica were dispensed into 100 μl of rat eosinophil-rich suspension in microtitre wells. According to the experiment either 100 μl aliquots of immune serum or control serum were added with or without E/S products or purified Cathepsin L1. The cysteine proteinase inhibitor leupeptin was added in some experiments at a final concentration of 5 μg/ml. All dilutions were made in Roswell Park Memorial Institute 1640 with 4% heat inactivated fetal calf serum. At the end of the experiment juvenile flukes were carefully transferred to a microscope slide and examined microscopically at 40× and 100× magnifications. Individual flukes were examined and the number of bound eosinophils counted. Those NEJ with more than 20 cells attached were considered positive.
When rat eosinophil-rich cell populations were added to NEJ in the presence of immune rat serum (IRS obtained from female Wistar rats orally infected with 30 F. hepatica metacercariae; blood was taken after 5 weeks of infection; the sera obtained were pooled, aliquoted and stored at −20° C. until required; control serum was collected from uninfected rats), cell adherence was consistently high (>90% positive NEJ after 2 hours, FIG. 4, panel A; the scale along the base of the Figure represents percentage of positive NEJ as defined above; the 5 bars represent counts at 2 hour intervals). […]

[8] = system: NEJ; set-up: species or system Fasciola hepatica; conditions: added to NEJ in culture; data not shown
[9] = system: IgG cleaving activity of the E/S products from NEJ flukes; assay: Inhibition of IgG cleaving activity of NEJ E/S products; assay type: biochemical, Fasciola hepatica; conditions: final concentration of 50 μM
Method: (§4) As IgG is involved in antibody-dependent cellular cytotoxicity against helminth parasites and since adult fluke Cathepsin-L1 cleaves mouse IgG2a [see above], the E/S products from NEJ, 3 week-old, 5 week-old and adult flukes were tested for antibody cleaving activity. E/S products from all F. hepatica stages examined were capable of cleaving the purified IgG at the hinge region of the heavy chain and thereby releasing the Fc portion from the antibody binding regions.

[10] = system: IgG cleaving activity of the E/S products from adult flukes; assay: Inhibition of IgG cleaving activity of adult fluke E/S products; assay type: biochemical, Fasciola hepatica; conditions: final concentration of 50 μM
Method: as §4

Structure (SMILES) | Specific activity against fluorogenic substrates, 5 weeks [1] [μmol AMC/min/Mg] | Specific activity against fluorogenic substrates, Adults [2] [μmol AMC/min/Mg] | Kcat [3] [s⁻¹] | Km [3] [µM] | Kcat [4] [s⁻¹] | Km [4] [µM] | Specific activity against fluorogenic substrates, NEJ [5] [μmol AMC/min/Mg] | Specific activity against fluorogenic substrates, 3 weeks [6] [μmol AMC/min/Mg] | effect on action of E/S products and Cathepsin L1 on eosinophil attachment ([7]; 5 μg/ml, with immune serum and NEJ or mature fluke E/S products or purified Cathepsin L1) | rate at which eosinophils are lost from the NEJ surface ([7]; in the presence of immune serum, FIG. 4 panel I) | viability of NEJ [8] | inhibition of IgG cleaving activity [9] | inhibition of IgG cleaving activity [10]
Cc1cc(=O)oc2cc(NC(=O)[C@H](CCCN=C(N)N)NC(=O)[C@H](CCCN=C(N)N)NC(=O)OCc3ccccc3)ccc12 [Z-Arg-Arg-AMC] (Cbz-Arg-Arg-{AMC}) | 2 | 21 | 0.002 | 65.6 | 0.02 | 9.07 | 0 | 0 |  |  |  |  | 
Cc1cc(=O)oc2cc(NC(=O)[C@H](CCCN=C(N)N)NC(=O)[C@@H](NC(=O)[C@H](Cc3ccccc3)NC(=O)c3ccccc3)C(C)C)ccc12 [Bz-Phe-Val-Arg-AMC] (Bz-Phe-Val-Arg-{AMC}) |  |  | 0.03 | 9.25 | 0.06 | 1.2 |  |  |  |  |  |  | 
Cc1cc(=O)oc2cc(NC(=O)[C@H](CCCCN)NC(=O)[C@H](Cc3ccccc3)NC(=O)[C@H](C)NC(=O)CCC(=O)O)ccc12 [Suc-Ala-Phe-Lys-AMC] (Suc-Ala-Phe-Lys-{AMC}) |  |  | 0.05 | 65.3 | 0.14 | 41.1 |  |  |  |  |  |  | 
Cc1cc(=O)oc2cc(NC(=O)[C@H](CCCN=C(N)N)NC(=O)OCc3ccccc3)ccc12 [Z-Arg-AMC] | 5 | 63 | 0.04 | 20.4 | 0.09 | 14.1 | 1 | 3 |  |  |  |  | 
Cc1cc(=O)oc2cc(NC(=O)[C@H](Cc3ccc(O)cc3)NC(=O)[C@@H](NC(=O)[C@@H](N)CC(C)C)C(C)C)ccc12 [H-Leu-Val-Tyr-AMC] (H-Leu-Val-Tyr-{AMC}) |  |  | 0.02 | 5.4 | 0.21 | 3.75 |  |  |  |  |  |  | 
Cc1ccc(S(=O)(=O)NCC(=O)N2CCC[C@H]2C(=O)N[C@@H](CCCNC(=N)N)C(=O)Nc2ccc3c(C)cc(=O)oc3c2)cc1 [Tos-Gly-Pro-Arg-AMC] (Tos-Gly-Pro-Arg-{AMC}) |  |  | 0.03 | 26 | 1.93 | 17.1 |  |  |  |  |  |  | 
Cc1cc(=O)oc2cc(NC(=O)[C@H](Cc3ccc(O)cc3)NC(=O)[C@@H](NC(=O)[C@H](CC(C)C)NC(=O)[C@H](CC(C)C)NC(=O)CCC(=O)O)C(C)C)ccc12 [Suc-Leu-Leu-Val-Tyr-AMC] (Suc-LLVY-{AMC}) |  |  | 0.01 | 38.5 | 0.08 | 23.3 |  |  |  |  |  |  | 
Cc1cc(=O)oc2cc(NC(=O)[C@H](CCCCN)NC(=O)[C@H](CC(C)C)NC(=O)[C@@H](NC(=O)OC(C)(C)C)C(C)C)ccc12 [Boc-Val-Leu-Lys-AMC] (Boc-Val-Leu-Lys-{AMC}) |  |  | 7.90 | 34.7 | 3.75 | 7.34 |  |  |  |  |  |  | 
Cc1cc(=O)oc2cc(NC(=O)[C@H](CCCNC(=N)N)NC(=O)[C@H](Cc3ccccc3)NC(=O)OCc3ccccc3)ccc12 [Z-Phe-Arg-AMC, benzyloxycarbonyl-L-phenylalanyl-L-arginyl-7-amido-4-methyl coumarin] (Cbz-Phe-Arg-{AMC}) | 90 | 1254 | 1.08 | 14.7 | 0.56 | 3.76 | 25 | 29 |  |  |  |  | 
Cc1ccc(S(=O)(=O)NCC(=O)N2CCC[C@H]2C(=O)N[C@@H](CCCCN)C(=O)Nc2ccc3c(C)cc(=O)oc3c2)cc1 [Tos-Gly-Pro-Lys-AMC] (Tos-Gly-Pro-Lys-{AMC}) |  |  | 0.03 | 107 | 1.37 | 35.5 |  |  |  |  |  |  | 
CC(=O)N[C@@H](CC(C)C)C(=O)N[C@@H](CC(C)C)C(=O)N[C@H](C=O)CCCNC(=N)N [leupeptin] |  |  |  |  |  |  |  |  | inhibits the effect of the E/S products and Cathepsin L1 | slightly reduces | did not affect their viability |  | 
Cc1cc(=O)oc2cc(NC(=O)[C@H](CCCN=C(N)N)NC(=O)[C@@H]3CCCN3C(=O)[C@@H](NC(=O)OC(C)(C)C)C(C)C)ccc12 [Boc-Val-Pro-Arg-AMC] (Boc-Val-Pro-Arg-{AMC}) |  |  | 0.02 | 43.6 | 1.19 | 24.8 |  |  |  |  |  |  | 
C[C@H](NC(=O)[C@H](Cc1ccccc1)NC(=O)OCc1ccccc1)C(=O)C=[N+]=[N-] [Z-phe-ala-CHN2] |  |  |  |  |  |  |  |  |  |  |  | completely inhibited | completely inhibited
